Test results as given in patent US20020137929A1, “1 - (3-heterocyclylphenyl) isothiourea, -isourea, -guanidine and -amidine herbicidal agents” (Intellectual Property Department, BASF Aktiengesellschaft, priority 1998, published 2002).

What was measured:
[1] = system: SETVI (Foxtail, Green); assay: Postemergence herbicidal evaluation; assay type: in vivo, Setaria viridis; conditions: postemergence
Procedure, shortened: (§1)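 Visual 0–9 rating versus control (stand, vigor, malformation, size, chlorosis, overall appearance), taken four to five weeks post-spray. Two-week-old seedlings received roughly 0.0156–0.500 kg/ha active in acetone/water (50/50) with 0.5% TWEEN 20 via nozzle at 40 psi.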

[2] = system: GLXMAW (Soybean, Williams); assay: Postemergence herbicidal evaluation; assay type: in vivo, Glycine max, (L.) Merr. cv Williams; conditions: postemergence
Procedure, shortened: as §1

[3] = system: SETVI (Foxtail, Green); assay: Preemergence herbicidal evaluation; assay type: in vivo, Setaria viridis; conditions: rated 4-5 weeks after treatment
Procedure, shortened: (§2)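 Rating at 4–5 wk post-spray on a 0–9 visual scale vs control. Application: aqueous acetone, ~0.0156–0.500 kg/ha, to soil surface after seeding, preemergence.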

[4] = system: TRZAWR (Wheat, Winter, cv Riband); assay: Postemergence herbicidal evaluation; assay type: in vivo, Triticum aestivum; conditions: postemergence
Procedure, shortened: as §1

[5] = system: CYPIR (Rice Flatsedge); assay: Postemergence weed control under flooded paddy conditions; assay type: in vivo, Cyperus iria; conditions: postemergence weeds, 3-4 weeks after treatment
Procedure, shortened: (§3)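 Containers holding 3–5 cm weeds and rice at 1.5–2.5 leaves are flooded to 1.5–3 cm above soil. Compound in 50/50 v/v aqueous/acetone is then added directly to the water, about 0.0313–0.500 kg/ha. Plants are kept in the greenhouse and rated 0–9 visually at 3–4 weeks.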

[6] = system: CASOB (Sicklepod); assay: Preemergence herbicidal evaluation; assay type: in vivo, Cassia obtusifolia; conditions: rated 4-5 weeks after treatment
Procedure, shortened: as §2

[7] = system: MOOVA (Monochoria); assay: Preemergence weed control under flooded paddy conditions; assay type: in vivo, Monochoria vaginalis; conditions: rated 3-4 weeks after treatment
Procedure, shortened: (§4)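 Seeds or propagules sown in top 0.5 cm of silt loam soil, flooded 1.5 to 3 cm above surface throughout. Compound in 50/50 v/v aqueous/acetone pipetted into flood water at about 0.0313 to 0.500 kg/ha. Visual 0-9 rating versus control after three to four weeks in greenhouse.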

[8] = system: SAGPY (Arrowhead (Pygmaea)); assay: as above; assay type: in vivo, Sagittaria pygmaea; conditions: rated 3-4 weeks after treatment
Procedure, shortened: as §4

[9] = system: AMBEL (Ragweed, Common); assay: Postemergence herbicidal evaluation; assay type: in vivo, Ambrosia artemisifolia; conditions: postemergence
Procedure, shortened: as §1

[10] = system: ABUTH (Velvetleaf); assay: Postemergence herbicidal evaluation; assay type: in vivo, Abutilon theophrasti; conditions: postemergence
Procedure, shortened: as §1

[11] = system: ORYSAT (Rice, Tebonnet); assay: Postemergence herbicidal evaluation; assay type: in vivo, Oryza sativa, (L.) Tebonnet; conditions: postemergence
Procedure, shortened: as §1

[12] = system: ABUTH (Velvetleaf); assay: Preemergence herbicidal evaluation; assay type: in vivo, Abutilon theophrasti; conditions: rated 4-5 weeks after treatment
Procedure, shortened: as §2

[13] = system: ECHCG (Barnyardgrass); assay: Postemergence herbicidal evaluation; assay type: in vivo, Echinochloa crus-galli; conditions: postemergence
Procedure, shortened: as §1

[14] = system: SAGPY (Arrowhead (Pygmaea)); assay: Postemergence weed control under flooded paddy conditions; assay type: in vivo, Sagittaria pygmaea; conditions: postemergence weeds, 3-4 weeks after treatment
Procedure, shortened: as §3

CN1C(=O)CSC1=Nc1cc(N2C(=O)C3=C(CCCC3)C2=O)c(F)cc1Cl [Compound 1, N-{4-chloro-2-fluoro-5-[(3-methyl-4-oxo-2-thiazolidinylidene)amino]phenyl}-1-cyclohexene-1,2-dicarboximide]
1.0: SETVI herbicidal rating ([1]; rate 0.0157 kg/ha) | Herbicidal rating CYPIR ([5]; rate 0.0313 kg/ha) | ORYSAT herbicidal rating ([11]; rate 0.0157 kg/ha)
3.0: SETVI herbicidal rating ([1]; rate 0.0313 kg/ha) | CASOB preemergence herbicidal rating ([6]; rate 0.0625 kg/ha) | AMBEL herbicidal rating ([9]; rate 0.0313 kg/ha) | AMBEL herbicidal rating ([9]; rate 0.0625 kg/ha) | ORYSAT herbicidal rating ([11]; rate 0.0625 kg/ha)
4.5: GLXMAW herbicidal rating ([2]; rate 0.0313 kg/ha) | GLXMAW herbicidal rating ([2]; rate 0.0625 kg/ha)
5.5: GLXMAW herbicidal rating ([2]; rate 0.2500 kg/ha) | TRZAWR herbicidal rating ([4]; rate 0.2500 kg/ha) | Herbicidal rating CYPIR ([5]; rate 0.1250 kg/ha) | ORYSAT herbicidal rating ([11]; rate 0.2500 kg/ha) | ORYSAT herbicidal rating ([11]; rate 0.5000 kg/ha)
1.5: ORYSAT herbicidal rating ([11]; rate 0.0313 kg/ha)
2.0: CASOB preemergence herbicidal rating ([6]; rate 0.1250 kg/ha) | AMBEL herbicidal rating ([9]; rate 0.0157 kg/ha) | ECHCG herbicidal rating ([13]; rate 0.0625 kg/ha) | ECHCG herbicidal rating ([13]; rate 0.1250 kg/ha)
2.5: TRZAWR herbicidal rating ([4]; rate 0.0157 kg/ha)
8.5: Herbicidal rating CYPIR ([5]; rate 0.5000 kg/ha)
7.0: SETVI herbicidal rating ([1]; rate 0.1250 kg/ha) | SETVI herbicidal rating ([1]; rate 0.2500 kg/ha) | AMBEL herbicidal rating ([9]; rate 0.2500 kg/ha) | ECHCG herbicidal rating ([13]; rate 0.5000 kg/ha)
3.5: TRZAWR herbicidal rating ([4]; rate 0.0313 kg/ha) | Herbicidal rating CYPIR ([5]; rate 0.0625 kg/ha) | ORYSAT herbicidal rating ([11]; rate 0.1250 kg/ha)
6.7: CASOB preemergence herbicidal rating ([6]; rate 0.5000 kg/ha)
4.0: SETVI herbicidal rating ([1]; rate 0.0625 kg/ha) | GLXMAW herbicidal rating ([2]; rate 0.0157 kg/ha) | TRZAWR herbicidal rating ([4]; rate 0.0625 kg/ha)
6.0: GLXMAW herbicidal rating ([2]; rate 0.5000 kg/ha) | TRZAWR herbicidal rating ([4]; rate 0.5000 kg/ha) | CASOB preemergence herbicidal rating ([6]; rate 0.2500 kg/ha)
8.0: SETVI preemergence herbicidal rating ([3]; rate 0.1250 kg/ha) | SETVI preemergence herbicidal rating ([3]; rate 0.5000 kg/ha) | Herbicidal rating MOOVA ([7]; 0.0313 kg/ha) | AMBEL herbicidal rating ([9]; rate 0.5000 kg/ha) | ABUTH herbicidal rating ([10]; rate 0.0313 kg/ha) | ABUTH herbicidal rating ([10]; rate 0.0625 kg/ha)
9.0: SETVI herbicidal rating ([1]; rate 0.5000 kg/ha) | SETVI preemergence herbicidal rating ([3]; rate 0.0625 kg/ha) | SETVI preemergence herbicidal rating ([3]; rate 0.2500 kg/ha) | Herbicidal rating MOOVA ([7]; 0.0625 kg/ha) | Herbicidal rating MOOVA ([7]; 0.1250 kg/ha) | Herbicidal rating MOOVA ([7]; 0.2500 kg/ha) | Herbicidal rating MOOVA ([7]; 0.5000 kg/ha) | ABUTH herbicidal rating ([10]; rate 0.1250 kg/ha) | ABUTH herbicidal rating ([10]; rate 0.2500 kg/ha) | ABUTH herbicidal rating ([10]; rate 0.5000 kg/ha) | ABUTH preemergence herbicidal rating ([12]; rate 0.0625 kg/ha) | ABUTH preemergence herbicidal rating ([12]; rate 0.1250 kg/ha) | ABUTH preemergence herbicidal rating ([12]; rate 0.2500 kg/ha) | ABUTH preemergence herbicidal rating ([12]; rate 0.5000 kg/ha)
5.0: GLXMAW herbicidal rating ([2]; rate 0.1250 kg/ha) | SETVI preemergence herbicidal rating ([3]; rate 0.0313 kg/ha) | TRZAWR herbicidal rating ([4]; rate 0.1250 kg/ha) | AMBEL herbicidal rating ([9]; rate 0.1250 kg/ha) | ABUTH herbicidal rating ([10]; rate 0.0157 kg/ha) | ABUTH preemergence herbicidal rating ([12]; rate 0.0313 kg/ha) | ECHCG herbicidal rating ([13]; rate 0.2500 kg/ha)
6.5: Herbicidal rating CYPIR ([5]; rate 0.2500 kg/ha)
0.0: CASOB preemergence herbicidal rating ([6]; rate 0.0313 kg/ha) | Herbicidal rating SAGPY ([8]; 0.0313 kg/ha) | Herbicidal rating SAGPY ([8]; 0.0625 kg/ha) | Herbicidal rating SAGPY ([8]; 0.1250 kg/ha) | Herbicidal rating SAGPY ([8]; 0.2500 kg/ha) | Herbicidal rating SAGPY ([8]; 0.5000 kg/ha) | ECHCG herbicidal rating ([13]; rate 0.0157 kg/ha) | ECHCG herbicidal rating ([13]; rate 0.0313 kg/ha) | Herbicidal rating SAGPY ([14]; rate 0.0313 kg/ha) | Herbicidal rating SAGPY ([14]; rate 0.0625 kg/ha) | Herbicidal rating SAGPY ([14]; rate 0.1250 kg/ha) | Herbicidal rating SAGPY ([14]; rate 0.2500 kg/ha) | Herbicidal rating SAGPY ([14]; rate 0.5000 kg/ha)
